Results reported in patent US20090030033A1, “Novel Compounds 894” (AstraZeneca AB, priority 2007, published 2009).
pIC50: −log10 of the molar value. Counter-ions that a name gives are not always drawn.

These compounds were tested against T1, human GlyT1b (Homo sapiens, UniProt P48067) (assay: [3H]Glycine Uptake Assay (SPA) in hGlyT1b/CHO cells). Details: compounds of Formula Ia, read at 2 h.
T1 construct: expressed in transfected cells
T1 sequence (P48067 1-652 isoform P48067-3): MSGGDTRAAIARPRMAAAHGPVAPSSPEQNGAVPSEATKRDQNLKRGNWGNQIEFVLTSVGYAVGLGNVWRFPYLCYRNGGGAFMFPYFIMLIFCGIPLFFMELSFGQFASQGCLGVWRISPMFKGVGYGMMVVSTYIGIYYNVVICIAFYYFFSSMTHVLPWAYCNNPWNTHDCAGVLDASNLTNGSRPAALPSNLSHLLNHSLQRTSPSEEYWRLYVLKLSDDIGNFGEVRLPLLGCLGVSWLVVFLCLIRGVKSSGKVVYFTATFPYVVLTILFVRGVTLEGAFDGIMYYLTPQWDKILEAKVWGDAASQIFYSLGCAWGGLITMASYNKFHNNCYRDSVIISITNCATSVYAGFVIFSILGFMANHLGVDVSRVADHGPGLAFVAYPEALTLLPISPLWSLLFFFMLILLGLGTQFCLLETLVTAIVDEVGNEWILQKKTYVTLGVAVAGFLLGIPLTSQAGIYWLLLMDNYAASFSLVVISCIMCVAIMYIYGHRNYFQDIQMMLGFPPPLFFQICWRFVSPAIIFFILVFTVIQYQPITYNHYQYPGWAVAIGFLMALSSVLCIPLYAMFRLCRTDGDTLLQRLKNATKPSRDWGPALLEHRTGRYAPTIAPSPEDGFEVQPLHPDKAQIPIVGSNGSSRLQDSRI
Assay type: cell-based
Description: The activity and usefulness of the compounds can be assessed in assays known to those skilled in the art. […] The potency was measured in the [3H]Glycine Uptake Assay substantially as described below.
[^3H]Glycine Uptake Assay
[^3H]Glycine: PerkinElmer (NET-004, [2-^3H]Glycine, 53.3 Ci/mmol, 1 mCi/mL)
Preparation of recombinant human GlyT1-CHO cells (hGlyT1-CHO). […] CHO-K1 cells (ATCC) were transfected with the recombinant vector containing GlyT1b using Lipofectamine 2000 (Invitrogen) and cultured in Ham's/F12 media supplemented with 10% fetal bovine serum, 2 mM L-glutamine at 37° C., 5% CO2, 90% humidity. Twenty-four hours after transfection, cells were diluted and switched to media containing 500 μg/ml hygromycin B. Antibiotic resistant cells were obtained after 21 days of culture in the presence of hygromycin B. Clonal stable cell lines were isolated by FACS single cell deposition into 96-well plates.
Cell culture: Recombinant hGlyT1-CHO cells were cultured in cell culture medium (Ham's/F12, containing 10% FBS, 2 mM L-glutamine and 500 μg/ml hygromycin B in 175 cm^2 flasks until near confluence prior to use in assay.
Cell suspension: Cell medium in a cell culture flask containing near confluent cells was removed and 5 ml of cell stripper was added to submerge all cells on the surface of the culture flask. Cell stripper was removed immediately and the flask incubated in a 37° C. incubator for ˜5 min. Cells were shaken loose and suspended in 5 ml of PBS. After splitting cells to initiate a new flask(s), the cells remaining were collected by centrifugation, counted, and resuspended in assay buffer to a density of ˜2 million/mL. The cell suspension was kept at room temperature before use.
SPA and isotope mixture: WGA PTV beads were suspended in assay buffer (2 mg/ml) containing 60 nM [^3H]Glycine and 20 μM unlabeled glycine and the suspension was kept at room temperature before assay.
Assay of glycine uptake: To the wells of an OptiPlate, 2 μl DMSO containing a test compound was spotted. This was followed by addition of 98 μl of cell suspension (˜1 million/ml final). After incubating cells with compound for ˜15 min, 100 μl of the SPA (200 μg/well final) and isotope mixture (30 nM isotope with 10 μM cold glycine, final) was added to initiate the glycine uptake. At 2 h, the plate was read on a TopCount to quantify SPA counts.
O=C(NC(c1ccccc1)C12CCC(CC1)CN2)c1cccc(Cl)c1Cl (single isomer, unassigned) [N-(2-azabicyclo[2.2.2]octan-1-yl(phenyl)methyl)-2,3-dichlorobenzamide] showed a pIC50 of 7.00.
Cc1c(C(=O)NC(c2ccccc2)C23CCC(CC2)CN3)cccc1C(F)(F)F (single isomer, unassigned) [N-(2-azabicyclo[2.2.2]octan-1-yl(phenyl)methyl)-2-methyl-3-(trifluoromethyl)benzamide] gave a pIC50 of 7.17.
In the case of O=C(NC(c1ccccc1)C12CCC(CC1)CN2)c1cccc(C(F)(F)F)c1Cl (single isomer, unassigned) [drawing 102, N-(2-azabicyclo[2.2.2]octan-1-yl(phenyl)methyl)-2-chloro-3-(trifluoromethyl)benzamide], the pIC50 was 6.34.
Work on O=C(NC(c1ccccc1)C12CCC(CC1)CN2)c1cccc(C(F)(F)F)c1Cl (single isomer, unassigned) [drawing 103, N-(2-azabicyclo[2.2.2]octan-1-yl(phenyl)methyl)-2-chloro-3-(trifluoromethyl)benzamide] yielded a pIC50 of 6.70.
Work on O=C(NC(c1ccccc1)C12CCC(CC1)CN2)c1cccc(C(F)(F)F)c1Cl (stereo not shown) [N-(2-azabicyclo[2.2.2]octan-1-yl(phenyl)methyl)-2-chloro-3-(trifluoromethyl)benzamide] yielded a pIC50 of 6.59.

Same assay, conditions: compounds of Formula Ib, read at 2 h
Work on CN1CC2CCC1(C(NC(=O)c1ccc(Cl)cc1Cl)c1ccccc1)CC2 (stereo not shown) [2,4-dichloro-N-((2-methyl-2-azabicyclo[2.2.2]octan-1-yl)(phenyl)methyl)benzamide] yielded a pIC50 of 8.19.
Compound CN1CC2CCC1(C(NC(=O)c1cccc(F)c1Br)c1ccccc1)CC2 (stereo not shown) [2-bromo-3-fluoro-N-((2-methyl-2-azabicyclo[2.2.2]octan-1-yl)(phenyl)methyl)benzamide] has a pIC50 of 7.59.
Work on CN1CC2CCC1(C(NC(=O)c1c(Cl)cccc1Br)c1ccccc1)CC2 (stereo not shown) [2-bromo-6-chloro-N-((2-methyl-2-azabicyclo[2.2.2]octan-1-yl)(phenyl)methyl)benzamide] yielded a pIC50 of 7.92.
Cc1cccc(Br)c1C(=O)NC(c1ccccc1)C12CCC(CC1)CN2C (stereo not shown) [2-bromo-6-methyl-N-((2-methyl-2-azabicyclo[2.2.2]octan-1-yl)(phenyl)methyl)benzamide] showed a pIC50 of 8.87.
CN1CC2CCC1(C(NC(=O)c1ccccc1Br)c1ccccc1)CC2 (stereo not shown) [2-bromo-N-((2-methyl-2-azabicyclo[2.2.2]octan-1-yl)(phenyl)methyl)benzamide] was tested, and the pIC50 was 7.98.
CN1CC2CCC1(C(NC(=O)c1cccc(F)c1Cl)c1ccccc1)CC2 (stereo not shown) [2-chloro-3-fluoro-N-((2-methyl-2-azabicyclo[2.2.2]octan-1-yl)(phenyl)methyl)benzamide] gave a pIC50 of 7.92.
With COc1ccc(Cl)c(C(=O)NC(c2ccccc2)C23CCC(CC2)CN3C)c1 (stereo not shown) [2-chloro-5-methoxy-N-((2-methyl-2-azabicyclo[2.2.2]octan-1-yl)(phenyl)methyl)benzamide] the pIC50 was 7.49.
For COc1cccc(Cl)c1C(=O)NC(c1ccccc1)C12CCC(CC1)CN2C (stereo not shown) [2-chloro-6-methoxy-N-((2-methyl-2-azabicyclo[2.2.2]octan-1-yl)(phenyl)methyl)benzamide], the pIC50 was 8.50.
Compound Cc1cccc(Cl)c1C(=O)NC(c1ccccc1)C12CCC(CC1)CN2C (stereo not shown) [2-chloro-6-methyl-N-((2-methyl-2-azabicyclo[2.2.2]octan-1-yl)(phenyl)methyl)benzamide] has a pIC50 of 8.64.
CN1CC2CCC1(C(NC(=O)c1ccccc1Cl)c1ccccc1)CC2 (stereo not shown) [2-chloro-N-((2-methyl-2-azabicyclo[2.2.2]octan-1-yl)(phenyl)methyl)benzamide] was tested, and the pIC50 was 7.19.
CN1CC2CCC1(C(NC(=O)c1cccc(C(F)(F)F)c1F)c1ccccc1)CC2 (stereo not shown) [2-fluoro-N-((2-methyl-2-azabicyclo[2.2.2]octan-1-yl)(phenyl)methyl)-3-(trifluoromethyl)benzamide] was tested, and the pIC50 was 7.04.
For CN1CC2CCC1(C(NC(=O)c1c(F)cccc1C(F)(F)F)c1ccccc1)CC2 (stereo not shown) [2-fluoro-N-((2-methyl-2-azabicyclo[2.2.2]octan-1-yl)(phenyl)methyl)-6-(trifluoromethyl)benzamide], the pIC50 was 7.19.
For Cc1c(C(=O)NC(c2ccccc2)C23CCC(CC2)CN3C)cccc1C(F)(F)F (stereo not shown) [2-methyl-N-((2-methyl-2-azabicyclo[2.2.2]octan-1-yl)(phenyl)methyl)-3-(trifluoromethyl)benzamide], the pIC50 was > 8.63.
Cc1ccccc1C(=O)NC(c1ccccc1)C12CCC(CC1)CN2C (stereo not shown) [2-methyl-N-((2-methyl-2-azabicyclo[2.2.2]octan-1-yl)(phenyl)methyl)benzamide] showed a pIC50 of 8.46.
Cc1c(F)cccc1C(=O)NC(c1ccccc1)C12CCC(CC1)CN2C (stereo not shown) [3-fluoro-2-methyl-N-((2-methyl-2-azabicyclo[2.2.2]octan-1-yl)(phenyl)methyl)benzamide] gave a pIC50 of 8.59.
CN1CC2CCC1([C@H](NC(=O)c1ccc(Cl)cc1Cl)c1ccccc1)CC2 [(R)-2,4-dichloro-N-((2-methyl-2-azabicyclo[2.2.2]octan-1-yl)(phenyl)methyl)benzamide,citric acid salt] showed a pIC50 of 7.95.
CN1CC2CCC1([C@H](NC(=O)c1cccc(F)c1Cl)c1ccccc1)CC2 [(R)-2-chloro-3-fluoro-N-((2-methyl-2-azabicyclo[2.2.2]octan-1-yl)(phenyl)methyl)benzamide,citric acid salt] gave a pIC50 of 8.23.
Compound COc1cccc(Cl)c1C(=O)N[C@H](c1ccccc1)C12CCC(CC1)CN2C [(R)-2-chloro-6-methoxy-N-((2-methyl-2-azabicyclo[2.2.2]octan-1-yl)(phenyl)methyl)benzamide,citric acid salt] has a pIC50 of 8.32.
For CCOc1ccccc1C(=O)N[C@H](c1ccccc1)C12CCC(CC1)CN2C [(R)-2-ethoxy-N-((2-methyl-2-azabicyclo[2.2.2]octan-1-yl)(phenyl)methyl)benzamide,citric acid salt], the pIC50 was 6.47.
Compound CCc1ccccc1C(=O)N[C@H](c1ccccc1)C12CCC(CC1)CN2C [(R)-2-ethyl-N-((2-methyl-2-azabicyclo[2.2.2]octan-1-yl)(phenyl)methyl)benzamide,citric acid salt] has a pIC50 of 9.02.
For CN1CC2CCC1([C@H](NC(=O)c1ccccc1C(F)(F)F)c1ccccc1)CC2 [(R)-N-((2-methyl-2-azabicyclo[2.2.2]octan-1-yl)(phenyl)methyl)-2-(trifluoromethyl)benzamide,citric acid salt], the pIC50 was 7.30.
CN1CC2CCC1(C(NC(=O)c1cc(C(F)(F)F)ccc1C(F)(F)F)c1ccccc1)CC2 (stereo not shown) [N-((2-methyl-2-azabicyclo[2.2.2]octan-1-yl)(phenyl)methyl)-2,5-bis(trifluoromethyl)benzamide] was tested, and the pIC50 was 7.06.
CSc1ccccc1C(=O)NC(c1ccccc1)C12CCC(CC1)CN2C (stereo not shown) [N-((2-methyl-2-azabicyclo[2.2.2]octan-1-yl)(phenyl)methyl)-2-(methylthio)benzamide] showed a pIC50 of 8.53.
CN1CC2CCC1(C(NC(=O)c1ccccc1OC(F)(F)F)c1ccccc1)CC2 (stereo not shown) [N-((2-methyl-2-azabicyclo[2.2.2]octan-1-yl)(phenyl)methyl)-2-(trifluoromethoxy)benzamide] gave a pIC50 of 7.87.
CN1CC2CCC1(C(NC(=O)c1ccc(F)cc1Cl)c1ccccc1)CC2 (stereo not shown) [drawing 37, 2-chloro-4-fluoro-N-((2-methyl-2-azabicyclo[2.2.2]octan-1-yl)(phenyl)methyl)benzamide] gave a pIC50 of 8.07.
CN1CC2CCC1(C(NC(=O)c1ccc(F)cc1Cl)c1ccccc1)CC2 [drawing 58, (R)-2-chloro-4-fluoro-N-((2-methyl-2-azabicyclo[2.2.2]octan-1-yl)(phenyl)methyl)benzamide,citric acid salt] showed a pIC50 of 8.11.
